Results from patent US20230172203A1, “PLANT METABOLISM PROMOTING COMPOSITIONS AND METHODS OF USE” (Panoptic Ag Solutions LLC, priority 2021, published 2023).

Assays:
Dwarf sunflower = assay: 2021 Greenhouse Sunflower Trial; assay type: in vivo
Source text: The base formulation used in greenhouse trials was an aqueous solution of L-theanine (20% by weight). The base formulation was further diluted with water as detailed for each trial. Dwarf sunflower seeds (n=9/treatment) were planted in commercial potting soil in 1-gallon pots. Approximately 14 days after emergence, an L-theanine solution was applied to the foliage at the equivalent of 8 fl. oz./acre in 50 gallons of water (125 ppm) and sprayed till run off. One application was made.

Mustard plants = assay: 2021 Greenhouse Mustard Trial (soil application); assay type: in vivo
Experimental: The base formulation used in greenhouse trials was an aqueous solution of L-theanine (20% by weight). The base formulation was further diluted with water as detailed for each trial. Mustard seeds (n=28/treatment) were planted in commercial potting soil in 1-gallon pots. Approximately 14 days after seedling emergence, an aqueous L-theanine solution was mixed into water at a rate of 0.2 mL per 1000 mL water. The resulting solution was applied to the soil of the pots at a rate of 50 mL per plant. Plants were grown for an additional 14 days then harvested.

[1] = foliar, 8 fl. oz./acre in 50 gallons of water (125 ppm), one application
[2] = over the untreated check, 125 ppm foliar, one application
[3] = 0.2 mL per 1000 mL water, 50 mL per plant, harvested 14 days later

SMILES: CCNC(=O)CC[C@H](N)C(=O)O [L-theanine]
- Root Length (Dwarf sunflower; [1]): 1765.1 a cm
- Root Surface Area (Dwarf sunflower; [1]): 491.1 a cm^2
- Root Volume (Dwarf sunflower; [1]): 10.9 a cm^3
- Plant Biomass (Dwarf sunflower; foliar, 8 fl. oz./acre in 50 gallons of water (125 ppm), one application ~14 days after emergence): 38.63 a g
- increase in biomass (Dwarf sunflower; [2]): 4.4 grams
- increase in biomass, percent (Dwarf sunflower; [2]): 12.8%
- increase in root length (Dwarf sunflower; [2]): 70.5 cm
- increase in root length, percent (Dwarf sunflower; [2]): 4.2%
- increase in root surface area (Dwarf sunflower; [2]): 61.5 cm^2
- increase in root surface area, percent (Dwarf sunflower; [2]): 14.3%
- increase in root volume (Dwarf sunflower; [2]): 2.2 cm^3
- increase in root volume, percent (Dwarf sunflower; [2]): 25.3%
- Plant Biomass (Mustard plants; [3]): 22.19 a g
- Root Length (Mustard plants; [3]): 545.5 a cm
- Root Tips (count) (Mustard plants; [3]): 3178.7 a count
- increase in plant biomass (Mustard plants; above the untreated check): 2.8 g
- increase in plant biomass, percent (Mustard plants; above the untreated check): 14.5%
- increase in root length (Mustard plants; above the untreated check): 120.9 cm
- increase in root length, percent (Mustard plants; above the untreated check): 28.5%
- increase in root tips (Mustard plants; above the untreated check): 887
- increase in root tips, percent (Mustard plants; above the untreated check): 38.7%
